Assay results taken from patent US5145854A, “1-formyl-5,8,10-trideazafolates” (priority 1991, dated 1992).
pIC50: −log10 of the molar value. Where two headings read alike, the source gives them in different places.

How the values were obtained:
[1] = target: T1, hog liver glycinamide ribonucleotide formyltransferase (GARFTase) (Sus scrofa, UniProt A0A8W4FJW8); test: Inhibition of hog liver glycinamide ribonucleotide formyltransferase; assay type: biochemical; details: for IC50: hog liver enzyme, (R,S) diastereomer mixture where marked, read-out: I50 (μM) GARFTase
T1 construct: hog liver glycinamide ribonucleotide formyltransferase; from tissue; host or cells: hog liver
T1 sequence (A0A8W4FJW8 1-1009): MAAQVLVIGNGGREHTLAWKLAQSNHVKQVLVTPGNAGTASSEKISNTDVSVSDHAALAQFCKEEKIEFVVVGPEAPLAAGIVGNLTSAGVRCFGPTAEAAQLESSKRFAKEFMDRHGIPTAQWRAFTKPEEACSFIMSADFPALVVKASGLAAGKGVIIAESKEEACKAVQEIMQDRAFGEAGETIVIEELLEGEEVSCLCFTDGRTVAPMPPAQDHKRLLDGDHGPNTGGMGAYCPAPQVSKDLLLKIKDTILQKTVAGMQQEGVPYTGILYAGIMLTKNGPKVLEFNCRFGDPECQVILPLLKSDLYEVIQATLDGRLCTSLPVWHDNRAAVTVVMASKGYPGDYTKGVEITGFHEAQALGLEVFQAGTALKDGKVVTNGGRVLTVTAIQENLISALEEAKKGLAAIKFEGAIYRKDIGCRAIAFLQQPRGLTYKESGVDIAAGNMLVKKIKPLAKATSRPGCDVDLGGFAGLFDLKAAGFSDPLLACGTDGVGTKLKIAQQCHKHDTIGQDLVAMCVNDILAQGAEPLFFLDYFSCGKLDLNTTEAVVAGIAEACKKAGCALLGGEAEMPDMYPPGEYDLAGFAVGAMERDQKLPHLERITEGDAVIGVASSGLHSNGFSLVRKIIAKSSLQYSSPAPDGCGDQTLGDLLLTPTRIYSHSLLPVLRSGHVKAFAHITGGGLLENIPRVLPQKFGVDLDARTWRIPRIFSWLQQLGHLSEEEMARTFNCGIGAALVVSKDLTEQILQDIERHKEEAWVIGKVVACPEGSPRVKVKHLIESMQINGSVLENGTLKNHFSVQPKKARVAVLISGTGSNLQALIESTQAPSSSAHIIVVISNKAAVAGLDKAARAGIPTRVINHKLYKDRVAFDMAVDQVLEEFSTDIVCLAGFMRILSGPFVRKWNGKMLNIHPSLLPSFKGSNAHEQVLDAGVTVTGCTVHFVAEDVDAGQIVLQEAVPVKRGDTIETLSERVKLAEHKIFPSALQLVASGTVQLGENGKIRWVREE
Description: The representative compound of the present invention is 10-formyl-5,8,10-trideazatetrahydrofolic acid (FTDF) having the formula 1.

AICARFTase = AICARFTase (Homo sapiens, UniProt P31939); test: Inhibition of AICARFTase; assay type: biochemical
AICARFTase, sequence (P31939 whole entry): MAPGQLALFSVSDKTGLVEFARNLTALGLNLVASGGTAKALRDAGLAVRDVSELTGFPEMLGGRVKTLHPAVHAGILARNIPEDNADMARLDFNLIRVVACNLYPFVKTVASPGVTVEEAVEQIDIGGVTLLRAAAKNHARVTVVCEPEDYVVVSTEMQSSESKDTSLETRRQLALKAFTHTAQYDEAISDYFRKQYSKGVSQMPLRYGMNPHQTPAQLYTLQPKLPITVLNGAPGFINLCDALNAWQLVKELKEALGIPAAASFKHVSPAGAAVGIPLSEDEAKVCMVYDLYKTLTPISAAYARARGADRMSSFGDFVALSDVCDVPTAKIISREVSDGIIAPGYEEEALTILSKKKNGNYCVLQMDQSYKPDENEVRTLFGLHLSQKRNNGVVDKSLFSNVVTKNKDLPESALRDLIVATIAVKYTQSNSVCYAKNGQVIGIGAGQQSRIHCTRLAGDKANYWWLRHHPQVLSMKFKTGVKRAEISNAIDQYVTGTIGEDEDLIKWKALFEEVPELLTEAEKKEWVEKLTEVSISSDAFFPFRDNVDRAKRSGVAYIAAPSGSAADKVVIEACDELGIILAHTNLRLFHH

SMILES | IC50 [1] [µM] | pIC50 (AICARFTase) | potency against GARFTase relative to DDATHF ([1]; hog liver GARFTase, identical experimental conditions) | IC50 (AICARFTase; read-out: I50 (μM) AICARFTase) [µM]
Nc1nc(N)c(CCCNc2ccc(C(=O)N[C@@H](CCC(=O)O)C(=O)O)cc2)c(=O)[nH]1 [Compound 5-DACTHF, 5-deazaacyclotetrahydrofolic acid, reference compound] | 2.5 | – | – | –
Nc1nc2c(c(=O)[nH]1)CC(CCc1ccc(C(=O)N[C@@H](CCC(=O)O)C(=O)O)cc1)CN2 (some centres unmarked) [DDATHF, 5,10-dideazatetrahydrofolic acid, reference compound] | – | < 3.30 | – | –
Nc1nc2ccc(CC(C=O)c3ccc(C(=O)N[C@@H](CCC(=O)O)C(=O)O)cc3)cc2c(=O)[nH]1 (some centres unmarked) [FTDF, 10-Formyl-5,8,10-trideazafolic Acid] | 0.15 | – | almost twice as potent | 18
